Source: ChEMBL document CHEMBL1201862, “PubChem BioAssay data set” (2004)
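In this assay, cells in 96-well plates receive the compound at five concentrations for 48 hours. Endpoints are linearly interpolated between the surrounding concentrations. GI50 marks 50% less growth.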 Active and inactive are the calls of the source. Cut-off read from the data, not from the text of the source: active = GI50 up to about 1.1 µM and inactive = higher.

How the values were obtained:
Experiment in all cases: DTP human tumour cell line panel, 48 h
ACHN = test system: ACHN
M14 = test system: M14
RXF 393 = test system: RXF 393
KM12 = test system: KM12
OVCAR-4 = test system: OVCAR-4
MCF7 = test system: MCF7
OVCAR-5 = test system: OVCAR-5
DU-145 = test system: DU-145
IGROV-1 = test system: IGROV-1
UACC-257 = test system: UACC-257
HCT-15 = test system: HCT-15
SK-MEL-5 = test system: SK-MEL-5
BT-549 = test system: BT-549
U-251 = test system: U-251
UACC-62 = test system: UACC-62
MDA-N = test system: MDA-N
OVCAR-3 = test system: OVCAR-3
SK-MEL-28 = test system: SK-MEL-28
HL-60 = test system: HL-60
A498 = test system: A498
HT-29 = test system: HT-29
Hs-578T = test system: Hs-578T
OVCAR-8 = test system: OVCAR-8
MOLT-4 = test system: MOLT-4
MDA-MB-435 = test system: MDA-MB-435
MDA-MB-231 = test system: MDA-MB-231
COLO 205 = test system: COLO 205
SK-OV-3 = test system: SK-OV-3
NCI-H226 = test system: NCI-H226
SF-539 = test system: SF-539
HOP-62 = test system: HOP-62
SNB-19 = test system: SNB-19
HOP-92 = test system: HOP-92
NCI-H460 = test system: NCI-H460
A549 = test system: A549
SW-620 = test system: SW-620
EKVX = test system: EKVX
TK-10 = test system: TK-10
SF-268 = test system: SF-268
SN12C = test system: SN12C
HCC 2998 = test system: HCC 2998
CCRF-CEM = test system: CCRF-CEM
CAKI-1 = test system: CAKI-1
NCI-H522 = test system: NCI-H522
786-0 = test system: 786-0
SF-295 = test system: SF-295
NCI/ADR-RES = test system: NCI/ADR-RES
LOX IMVI = test system: LOX IMVI
HCT-116 = test system: HCT-116
NCI-H23 = test system: NCI-H23
UO-31 = test system: UO-31
SNB-75 = test system: SNB-75
K562 = test system: K562
SR = test system: SR
SK-MEL-2 = test system: SK-MEL-2
RPMI-8226 = test system: RPMI-8226
PC-3 = test system: PC-3
T47D = test system: T47D
Malme-3M = test system: Malme-3M

Measured: GI50

c1ccc2sc(C3(N4CCCCCC4)CCCCC3)cc2c1
22.3 µM: HCT-15
inactive: ACHN 30.8 µM | M14 19.3 µM | RXF 393 17.7 µM | KM12 16.1 µM | OVCAR-4 28.4 µM | MCF7 17.8 µM | OVCAR-5 17.8 µM | DU-145 29.4 µM | IGROV-1 36.1 µM | UACC-257 21.5 µM | SK-MEL-5 17.5 µM | BT-549 25 µM | U-251 19.2 µM | UACC-62 20.4 µM | MDA-N 28.9 µM | OVCAR-3 16.3 µM | SK-MEL-28 26.1 µM | HL-60 24.2 µM | A498 18.1 µM | HT-29 15.3 µM | Hs-578T 22.4 µM | OVCAR-8 29.5 µM | MOLT-4 15.6 µM | MDA-MB-435 25.3 µM | MDA-MB-231 27.8 µM | COLO 205 16 µM | SK-OV-3 29 µM | NCI-H226 22.6 µM | SF-539 23.4 µM | HOP-62 26.2 µM | SNB-19 18.7 µM | HOP-92 17.6 µM | NCI-H460 18.8 µM | A549 35.2 µM | SW-620 18.2 µM | EKVX 22.8 µM | TK-10 22.8 µM | SF-268 25.8 µM | SN12C 20.6 µM | HCC 2998 15.5 µM | CCRF-CEM 16.7 µM | CAKI-1 36.5 µM | NCI-H522 21.1 µM | 786-0 19.1 µM | SF-295 20.1 µM | NCI/ADR-RES 21.8 µM | LOX IMVI 20.6 µM | HCT-116 20.3 µM | NCI-H23 20 µM | UO-31 20.3 µM | SNB-75 23.8 µM | K562 16.7 µM

Cc1nn(C(=O)c2ccncc2)c2c1C(c1ccc(Cl)cc1)SC(=N)N2 (stereo unspecified)
inactive: ACHN > 10 µM | M14 > 10 µM | RXF 393 > 10 µM | KM12 > 10 µM | OVCAR-4 > 10 µM | MCF7 > 10 µM | OVCAR-5 > 10 µM | DU-145 > 10 µM | IGROV-1 > 10 µM | UACC-257 > 10 µM | SK-MEL-5 > 10 µM | BT-549 > 10 µM | SR > 10 µM | SK-MEL-2 > 10 µM | UACC-62 > 10 µM | MDA-N > 10 µM | OVCAR-3 > 10 µM | SK-MEL-28 > 10 µM | RPMI-8226 > 10 µM | HL-60 > 10 µM | PC-3 > 10 µM | HT-29 > 10 µM | Hs-578T > 10 µM | OVCAR-8 > 10 µM | MOLT-4 > 10 µM | MDA-MB-435 > 10 µM | MDA-MB-231 > 10 µM | COLO 205 > 10 µM | NCI-H226 > 10 µM | SF-539 > 10 µM | HOP-62 > 10 µM | SNB-19 > 10 µM | HOP-92 > 10 µM | NCI-H460 > 10 µM | A549 > 10 µM | SW-620 > 10 µM | EKVX > 10 µM | TK-10 > 10 µM | SF-268 > 10 µM | SN12C > 10 µM | HCC 2998 > 10 µM | T47D > 10 µM | CCRF-CEM > 10 µM | CAKI-1 > 10 µM | 786-0 > 10 µM | SF-295 > 10 µM | NCI/ADR-RES > 10 µM | LOX IMVI > 10 µM | HCT-116 > 10 µM | NCI-H23 > 10 µM | SNB-75 > 10 µM | Malme-3M > 10 µM | K562 > 10 µM
> 10 µM: HCT-15

O=C1CCN(CCC(F)(F)C(F)(F)C(F)(F)C(F)(F)C(F)(F)C(F)(F)F)C(=S)N1CCC(F)(F)C(F)(F)C(F)(F)C(F)(F)C(F)(F)C(F)(F)F
inactive: ACHN > 100 µM | M14 > 100 µM | RXF 393 > 100 µM | KM12 > 100 µM | OVCAR-4 > 100 µM | MCF7 > 100 µM | OVCAR-5 > 100 µM | DU-145 > 100 µM | IGROV-1 > 100 µM | UACC-257 > 100 µM | SK-MEL-5 > 100 µM | BT-549 > 100 µM | U-251 > 100 µM | SR > 100 µM | UACC-62 > 100 µM | MDA-N > 100 µM | OVCAR-3 > 100 µM | SK-MEL-28 > 100 µM | HL-60 > 100 µM | A498 > 100 µM | PC-3 > 100 µM | HT-29 > 100 µM | Hs-578T > 100 µM | OVCAR-8 > 100 µM | MOLT-4 > 100 µM | MDA-MB-435 > 100 µM | MDA-MB-231 > 100 µM | COLO 205 > 100 µM | SK-OV-3 > 100 µM | NCI-H226 > 100 µM | SF-539 > 100 µM | HOP-62 > 100 µM | SNB-19 > 100 µM | HOP-92 > 100 µM | NCI-H460 > 100 µM | A549 > 100 µM | SW-620 > 100 µM | EKVX > 100 µM | TK-10 > 100 µM | SF-268 > 100 µM | SN12C > 100 µM | HCC 2998 > 100 µM | T47D > 100 µM | CCRF-CEM > 100 µM | CAKI-1 > 100 µM | NCI-H522 > 100 µM | 786-0 > 100 µM | SF-295 > 100 µM | HCT-116 > 100 µM | NCI-H23 > 100 µM | UO-31 > 100 µM | SNB-75 > 100 µM | Malme-3M > 100 µM | K562 > 100 µM
